Test results: ChEMBL document CHEMBL5252612, “A novel selective estrogen receptor degrader induces cell cycle arrest in breast cancer via ERα degradation and the autophagy-lysosome pathway” (Bioorg Med Chem, 2023)
Calls of active or inactive are those of the source. No cut-off for these calls is given here.

Experiments:
[1] = Toxicity in BALB/c nude mouse xenografted with human MCF7 cells assessed as liver cell morphological changes at 2 to 4 mg/kg, ip administered every other day by Hematoxylin and eosin staining based analysis; type: organism-based; conditions: in vivo, dose 2-4 mg/kg
[2] = Induction of cell cycle arrest in tamoxifen-resistant human LCC2 cells assessed as proportion of cells at G1 phase at 5 uM by flow cytometry (reference value: 47.4%); type: functional
[3] = molecular target: T1, Estrogen receptor (Homo sapiens) (UniProt P03372); experiment: Induction of ER-alpha degradation in human T47D cells assessed as decrease in ER-alpha protein expression in presence of autophagy inhibitor, CQ by western blot analysis; type: cell-based
T1 sequence (whole entry): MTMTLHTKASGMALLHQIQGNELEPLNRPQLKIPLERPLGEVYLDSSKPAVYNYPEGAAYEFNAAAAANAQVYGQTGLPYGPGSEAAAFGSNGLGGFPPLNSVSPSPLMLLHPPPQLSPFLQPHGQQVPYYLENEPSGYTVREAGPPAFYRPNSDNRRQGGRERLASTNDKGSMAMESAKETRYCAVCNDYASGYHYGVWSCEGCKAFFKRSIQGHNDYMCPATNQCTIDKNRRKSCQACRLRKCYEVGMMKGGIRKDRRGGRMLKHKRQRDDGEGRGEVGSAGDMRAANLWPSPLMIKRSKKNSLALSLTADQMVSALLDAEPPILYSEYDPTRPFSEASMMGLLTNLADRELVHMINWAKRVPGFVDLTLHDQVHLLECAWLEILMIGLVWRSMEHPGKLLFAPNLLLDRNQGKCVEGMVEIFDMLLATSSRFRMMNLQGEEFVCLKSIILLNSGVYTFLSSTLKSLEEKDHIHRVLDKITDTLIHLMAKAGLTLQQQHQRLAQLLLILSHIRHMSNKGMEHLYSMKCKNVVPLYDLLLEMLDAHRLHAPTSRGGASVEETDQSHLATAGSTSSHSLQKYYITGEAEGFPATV

T47D [4] = experiment: Induction of cell cycle arrest in human T47D cells assessed as proportion of cells at G2 phase at 10 uM incubated for 24 hrs in presence of autophagy inhibitor, 3-MA by flow cytometry (reference value: 18.2%); type: functional
MCF7 [5] = experiment: Induction of apoptosis and necrosis in human MCF7 cells incubated for 48 hrs by AnnexinV-FITC/PI staining based flow cytometry (reference value: 7.03%); type: functional
T47D [6] = experiment: Induction of cell cycle arrest in human T47D cells transfected with empty vector assessed as proportion of cells at G2 phase at 10 uM incubated for 24 hrs by flow cytometry (reference value: 53%); type: functional
[7] = Induction of cell cycle arrest in tamoxifen-resistant human LCC2 cells assessed as proportion of cells at G2 phase at 1 uM by flow cytometry (reference value: 23.7%); type: functional
T47D [8] = experiment: Induction of autophagy in human T47D cells assessed as downregulation of MYC protein expression at 5 to 10 uM incubated for 24 hrs in presence of autophagy inhibitor, CQ by western blot analysis; type: functional, cell-based; conditions: dose 5-10 µM
T47D [9] = experiment: Induction of cell cycle arrest in human T47D cells assessed as proportion of cells at S phase at 10 uM incubated for 24 hrs in presence of autophagy inhibitor, 3-MA by flow cytometry (reference value: 21.4%); type: functional
T47D [10] = experiment: Induction of cell cycle arrest in human T47D cells assessed as proportion of cells at G1 phase at 10 uM incubated for 24 hrs by flow cytometry (reference value: 52.6%); type: functional
T47D [11] = experiment: Inhibition of colony formation in human T47D cells at 1 to 5 uM incubated for 14 days by crystal violet staining based analysis; type: functional, cell-based; conditions: dose 1-5 µM, time 14.0 day
T47D [12] = experiment: Anticancer activity against ER-alpha positive human T47D cells assessed as reduction in cell viability at 10 uM measured after 48 hrs in presence of autophagy inhibitor, 3-MA by CCK8 assay; type: functional, cell-based
T47D [13] = experiment: Induction of autophagy in human T47D cells assessed as upregulation of LAMP2 protein expression at 10 uM incubated for 24 hrs by western blot analysis; type: functional, cell-based
[14] = Toxicity in BALB/c nude mouse xenografted with human MCF7 cells assessed as kidney cell morphological changes at 2 to 4 mg/kg, ip administered every other day by Hematoxylin and eosin staining based analysis; type: organism-based; conditions: in vivo, dose 2-4 mg/kg
MCF7 [15] = experiment: Inhibition of colony formation in human MCF7 cells at 1 to 10 uM incubated for 14 days by crystal violet staining based analysis; type: functional, cell-based; conditions: dose 1-10 µM, time 14.0 day
T47D [16] = experiment: Induction of autophagy in human T47D cells overexpressing ESR1 assessed as increase in autophagosome number by measuring LC3 puncta formation by immunofluorescence assay; type: functional, cell-based
T47D [17] = experiment: Induction of autophagy in human T47D cells assessed as increase in LC3 puncta formation at 1 to 10 uM incubated for 24 hrs by immunofluorescence assay; type: functional, cell-based; conditions: dose 1-10 µM
[18] = Downregulation of MYC expression in human T47D cells at 10 uM incubated for 12 hrs by RNA-seq analysis; type: functional
T47D [19] = experiment: Induction of cell cycle arrest in human T47D cells assessed as proportion of cells at G2 phase at 10 uM incubated for 24 hrs by flow cytometry (reference value: 17%); type: functional
[20] = molecular target: T1, Estrogen receptor (Homo sapiens); experiment: Induction of ER-alpha degradation in human T47D cells assessed as decrease in ER-alpha protein expression in presence of proteasome inhibitor, MG132 by western blot analysis; type: cell-based
[21] = Induction of cell cycle arrest in tamoxifen-resistant human LCC2 cells assessed as proportion of cells at S phase at 1 uM by flow cytometry (reference value: 28.4%); type: functional
T47D [22] = experiment: Induction of apoptosis and necrosis in human T47D cells assessed as live cells at 10 uM incubated for 48 hrs by AnnexinV-FITC/PI staining based flow cytometry (reference value: 96.26%); type: functional
T47D [23] = experiment: Induction of cell cycle arrest in human T47D cells assessed as proportion of cells at G1 phase at 5 uM incubated for 24 hrs by flow cytometry (reference value: 66.6%); type: functional
T47D [24] = experiment: Induction of cell cycle arrest in human T47D cells transfected with empty vector assessed as proportion of cells at S phase at 10 uM incubated for 24 hrs by flow cytometry (reference value: 25.9%); type: functional
MCF7 [25] = experiment: Induction of cell cycle arrest in human MCF7 cells assessed as proportion of cells at S phase at 5 uM incubated for 24 hrs by flow cytometry (reference value: 27.6%); type: functional
[26] = Induction of cell cycle arrest in tamoxifen-resistant human LCC2 cells assessed as proportion of cells at G2 phase at 5 uM by flow cytometry (reference value: 23.7%); type: functional
LCC2 = experiment: Anticancer activity against ER-alpha positive human LCC2 cells assessed as reduction in cell viability at 20 uM measured after 48 hrs by CCK8 assay; type: functional, cell-based
T47D [27] = experiment: Induction of cell cycle arrest in human T47D cells assessed as proportion of cells at S phase at 5 uM incubated for 24 hrs by flow cytometry (reference value: 15.3%); type: functional
[28] = Induction of cell cycle arrest in tamoxifen-resistant human LCC2 cells assessed as proportion of cells at G2 phase at 10 uM by flow cytometry (reference value: 23.7%); type: functional

- Activity [3]: Active
- Activity [20]: inactive
Compound: COc1ccc(N(CC(F)(F)F)S(=O)(=O)C2CC3OC2C(c2ccc(OCCN4CCCC4)cc2)=C3c2ccc(O)cc2)cc1 (centres undefined)
- Activity [1]: Non-Toxic
- Activity [2]: 71.9%
- Activity (T47D [4]): 19.3%
- Activity (MCF7 [5]): 46.45%
- Activity (T47D [6]): 33.7%
- Activity [7]: 16.6%
- Activity (T47D [8]): inactive
- Activity (T47D [9]): 14.5%
- Activity (T47D [10]): 71.6%
- inhibition (T47D [11]): Active
- Activity (T47D [12]): inactive
- Activity (T47D [13]): Active
- Activity [14]: Non-Toxic
- inhibition (MCF7 [15]): Active
- Activity (T47D [16]): Active
- Activity (T47D [17]): Active
- fold change (FC) [18]: -1.037
- Activity (T47D [19]): 16.9%
- Activity [21]: 19.6%
- Activity (T47D [22]): 93.26%
- Activity (T47D [23]): 76.8%
- Activity (T47D [24]): 22.8%
- Activity (MCF7 [25]): 15%
- Activity [26]: 14.5%
- Activity (LCC2): Active
- Activity (T47D [27]): 9.6%
- Activity [28]: 13%
